In patent US20200172483A1, “HETEROCYCLIC SMALL MOLECULE MODULATORS OF HUMAN STING” (Curadev Pharma Limited, priority 2017, published 2020):

target: T1, WT/R232 STING protein (Homo sapiens, UniProt Q86WV6, H232R); experiment: Luciferase reporter assay in HEK293T-hSTING-Luciferase cells (R232); assay type: cell-based; conditions: 20 hr stimulation, EC50 range
T1 construct: host or cells: HEK293T
Excerpt: • a) Stable STING expressing cells—Stable HEK293T STING-expressing cell lines were generated using plasmids purchased from Invivogen, CA, USA, that contain STING cDNA cloned into the pUNO-1 vector under hEF1-HTLV promoter and containing the Blasticidin selection cassette. The plasmids hSTING (R232), hSTING (H232), hSTING (HAQ) were directly procured from Invivogen while hSTING (AQ) and hSTING (Q) were derived from hSTING (HAQ) and hSTING (R232) plasmids respectively by using a PCR based site directed mutagenesis method. These vectors were individually transfected into HEK293T cells using Lipofectamine (Invitrogen) and transfected cells were selected under Blasticidin selection. These transfected cells were further subjected to clonal selection using the limiting dilution method to obtain clonally pure populations of HEK cells transfected with each of the above mentioned human STING variants. Only those clones were selected in which ligand independent activation of STING was minimal. • b) Stable Luciferase reporter gene expressing cells—Stable HEK293T Luciferase reporter gene expressing cell lines were generated using pCDNA4 plasmids under an IRF-inducible promoter. This promoter is comprised of five tandem interferon-stimulated response elements (ISRE) fused to an ISG54 minimal promoter. This vector was transfected into HEK293T cells using Lipofectamine (Invitrogen) and transfected cells were selected under Zeocin selection. These transfected cells were further subjected to clonal selection using the limiting dilution method to obtain clonally pure populations of HEK cells transfected the Luciferase reporter construct. Only those clones were selected in which ligand independent induction of luciferase was minimal.
5×10^5 clonally selected HEK293T-hSTING-Luciferase cells were seeded in 384-well plates in growth medium and stimulated with novel compounds. After 20 hr of stimulation supernatant were removed and secretary reporter gene activity were measured using the Quanti-Luc detection system (Invivogen) on a Spectramax i3X luminometer.
All compounds were first tested in a primary screen using WT/R232 STING protein to obtain a ‘fold-induction’ over baseline levels of protein activity.

T1 sequence (Q86WV6 whole entry H232R): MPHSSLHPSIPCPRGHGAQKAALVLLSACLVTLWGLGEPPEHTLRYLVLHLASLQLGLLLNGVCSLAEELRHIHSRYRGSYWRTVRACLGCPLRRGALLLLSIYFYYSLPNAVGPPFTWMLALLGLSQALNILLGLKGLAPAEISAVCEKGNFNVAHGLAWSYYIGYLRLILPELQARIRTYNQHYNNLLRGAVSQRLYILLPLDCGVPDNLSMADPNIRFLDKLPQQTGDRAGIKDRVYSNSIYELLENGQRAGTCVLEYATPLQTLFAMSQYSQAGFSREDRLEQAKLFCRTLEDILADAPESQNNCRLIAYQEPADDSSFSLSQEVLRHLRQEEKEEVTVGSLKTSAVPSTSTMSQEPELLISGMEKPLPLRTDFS

Q: For `O=C(NCc1c(F)cc(F)cc1F)c1ccc2c(c1)N(Cc1c(F)cccc1Cl)C(=O)C2(O)c1ccccc1` (stereo not drawn) [Example 160, 1-(2-chloro-6-fluorobenzyl)-3-hydroxy-2-oxo-3-phenyl-N-(2,4,6-trifluorobenzyl)indoline-6-carboxamide], which EC50 is on record?
A: Its EC50 is > 10 µM.

Q: With `Cn1c(=O)n(Cc2ccccc2Cl)c2cc(C(=O)NCc3ccco3)ccc21` [Example 202, 3-(2-chlorobenzyl)-N-(furan-2-ylmethyl)-1-methyl-2-oxo-2,3-dihydro-1H-benzo[d]imidazole-5-carboxamide] as the molecule, how does the EC50 read?
A: The EC50 was > 10 µM.

Q: How did the EC50 turn out when `CC1(C(N)=O)C(=O)N(Cc2cc(F)cc(F)c2)c2cc(C(=O)NCc3c(F)cc(F)cc3F)ccc21` (stereo not drawn) [Example 170] was run?
A: Its EC50 is > 10 µM.

Q: For `CC1(C)C(=O)N(Cc2c(F)cccc2Cl)c2cc(C(=O)NCc3cccc(Cl)c3)ccc21` [Example 9, 1-(2-chloro-6-fluorobenzyl)-N-(3-chlorobenzyl)-3,3-dimethyl-2-oxoindoline-6-carboxamide], which EC50 is on record?
A: The EC50 was 1 to 10 µM.

Q: With `O=C(NCc1c(F)cc(F)cc1F)c1ccc2c(c1)N(Cc1cc(F)cc(F)c1)C(=O)C21CCCCC1` [Example 138] as the molecule, how does the EC50 read?
A: Its EC50 is > 10 µM.

Q: With `CC1(C)C(=O)N(Cc2c(F)cccc2Cl)c2cc(C(=O)NCc3ccc4c(c3)OCO4)ccc21` [Example 86, N-(benzo[d][1,3]dioxol-5-ylmethyl)-1-(2-chloro-6-fluorobenzyl)-3,3-dimethyl-2-oxoindoline-6-carboxamide] as the molecule, how does the EC50 read?
A: Its EC50 is 1 to 10 µM.

Q: Which EC50 does the source give for `CC1(C)C(=O)N(Cc2cc(F)cc(F)c2)c2cc(C(=O)NCc3ccc(F)cc3F)cnc21` [Example 199, N-(2,4-difluorobenzyl)-1-(3,5-difluorobenzyl)-3,3-dimethyl-2-oxo-2,3-dihydro-1H-pyrrolo[3,2-b]pyridine-6-carboxamide] here?
A: Its EC50 is 1 to 10 µM.

Q: For `CC1(C)C(=O)N(Cc2ccc(C(N)=O)cc2F)c2cc(C(=O)NCc3c(F)cc(F)cc3F)ccc21` [Example 121, 1-(4-carbamoyl-2-fluorobenzyl)-3,3-dimethyl-2-oxo-N-(2,4,6-trifluorobenzyl)indoline-6-carboxamide], which EC50 is on record?
A: The EC50 was 1 to 10 µM.

Q: With `Cn1cc(CN2C(=O)C(C)(C)c3ccc(C(=O)NCc4c(F)cc(F)cc4F)cc32)cn1` [Example 68, 3,3-dimethyl-1-((1-methyl-1H-pyrazol-4-yl)methyl)-2-oxo-N-(2,4,6-trifluorobenzyl)indoline-6-carboxamide] as the molecule, how does the EC50 read?
A: Its EC50 is 1 to 10 µM.

Q: Which EC50 does the source give for `Cc1cc(CN2C(=O)C(C)(C)c3ccc(C(=O)NCc4cc5ccccc5o4)nc32)ccn1` [Example 183, N-(benzofuran-2-ylmethyl)-3,3-dimethyl-1-((2-methylpyridin-4-yl)methyl)-2-oxo-2,3-dihydro-1H-pyrrolo[2,3-b]pyridine-6-carboxamide] here?
A: The EC50 was 1 to 10 µM.

Q: Which EC50 does the source give for `CC1(C)C(=O)N(Cc2ccccc2F)c2cc(C(=O)N(CC(=O)O)Cc3ccco3)ccc21` [Example 3, 2-(1-(2-fluorobenzyl)-N-(furan-2-ylmethyl)-3,3-dimethyl-2-oxoindoline-6-carboxamido)acetic acid] here?
A: Its EC50 is > 10 µM.

Q: `CC1(C)C(=O)N(Cc2c(F)cccc2C(F)(F)F)c2cc(C(=O)NCc3c(F)cc(F)cc3F)ccc21` [Example 84, 1-(2-fluoro-6-(trifluoromethyl)benzyl)-3,3-dimethyl-2-oxo-N-(2,4,6-trifluorobenzyl)indoline-6-carboxamide] was tested. Which EC50 did it give?
A: The EC50 was 1 to 10 µM.

Q: Which EC50 does the source give for `CC1(C)C(=O)N(Cc2cc(F)cc(F)c2)c2cc(C(=O)NCc3cc4ccccc4o3)cnc21` [Example 193, N-(benzofuran-2-ylmethyl)-1-(3,5-difluorobenzyl)-3,3-dimethyl-2-oxo-2,3-dihydro-1H-pyrrolo[3,2-b]pyridine-6-carboxamide] here?
A: The EC50 was > 10 µM.

Q: Which EC50 does the source give for `Cc1ccc(CN2C(=O)C(C)(C)c3ccc(C(=O)NCc4cc(F)cc(F)c4)cc32)o1` [Example 125, N-(3,5-difluorobenzyl)-3,3-dimethyl-1-((5-methylfuran-2-yl)methyl)-2-oxoindoline-6-carboxamide] here?
A: The EC50 was > 10 µM.

Q: `O=C(NCc1ccco1)c1ccc2c(c1)N(C(=O)c1c(F)cccc1Cl)CC2` [Example 135, 1-(2-chloro-6-fluorobenzoyl)-N-(furan-2-ylmethyl)indoline-6-carboxamide] was tested. Which EC50 did it give?
A: Its EC50 is > 10 µM.

Q: How did the EC50 turn out when `CC1(C)C(=O)N(Cc2cc(F)cc(F)c2)c2c1ccc(C(=O)NCc1c(F)cc(F)cc1F)c2F` [Example 35, 1-(3,5-difluorobenzyl)-7-fluoro-3,3-dimethyl-2-oxo-N-(2,4,6-trifluorobenzyl)indoline-6-carboxamide] was run?
A: The EC50 was > 10 µM.

Q: Which EC50 does the source give for `CC1(C)C(=O)N(Cc2cccc3c2OC(F)(F)O3)c2cc(C(=O)NCc3c(F)cc(F)cc3F)ccc21` [Example 105, 1-((2,2-difluorobenzo[d][1,3]dioxol-4-yl)methyl)-3,3-dimethyl-2-oxo-N-(2,4,6-trifluorobenzyl)indoline-6-carboxamide] here?
A: Its EC50 is 1 to 10 µM.

Q: For `Cc1ccc(CNC(=O)c2ccc3c(c2)N(Cc2ccc(F)c(F)c2)C(=O)C3(C)C)o1` [Example 122, 1-(3,4-difluorobenzyl)-3,3-dimethyl-N-((5-methylfuran-2-yl)methyl)-2-oxoindoline-6-carboxamide], which EC50 is on record?
A: Its EC50 is 1 to 10 µM.

Q: How did the EC50 turn out when `COC1(C)C(=O)N(Cc2c(F)cccc2Cl)c2cc(C(=O)NCc3c(F)cc(F)cc3F)ccc21` (stereo not drawn) [Example 151] was run?
A: The EC50 was 1 to 10 µM.

Q: For `CC1(O)C(=O)N(Cc2cc(F)cc(F)c2)c2cc(C(=O)NCc3c(F)cc(F)cc3F)ccc21` (stereo not drawn) [Example 162], which EC50 is on record?
A: The EC50 was > 10 µM.

Q: Which EC50 does the source give for `O=C(NCc1ccco1)c1ccc2oc(=O)n(Cc3ccccc3F)c2c1` [Example 200, 3-(2-Fluorobenzyl)-N-(furan-2-ylmethyl)-2-oxo-2,3-dihydrobenzo[d]oxazole-5-carboxamide] here?
A: Its EC50 is > 10 µM.

Q: For `Cn1cccc1CNC(=O)c1ccc2c(c1)N(Cc1c(F)cccc1Cl)C(=O)C2(C)C` [Example 127, 1-(2-chloro-6-fluorobenzyl)-3,3-dimethyl-N-((1-methyl-1H-pyrrol-2-yl)methyl)-2-oxoindoline-6-carboxamide], which EC50 is on record?
A: Its EC50 is > 10 µM.

Q: Which EC50 does the source give for `O=C(NCc1c(F)cc(F)cc1F)c1ccc2c(c1)N(Cc1cc(F)cc(F)c1)C(=O)C2=O` [Example 141, 1-(3,5-Difluorobenzyl)-2,3-dioxo-N-(2,4,6-trifluorobenzyl)indoline-6-carboxamide] here?
A: The EC50 was > 10 µM.

Q: Which EC50 does the source give for `Cc1ncc(CN2C(=O)C(C)(C)c3ccc(C(=O)NCc4c(F)cc(F)cc4F)cc32)o1` [Example 128, 3,3-dimethyl-1-((2-methyloxazol-5-yl)methyl)-2-oxo-N-(2,4,6-trifluorobenzyl)indoline-6-carboxamide] here?
A: Its EC50 is > 10 µM.

Q: With `CC1(C)C(=O)N(Cc2cc(F)cc(F)c2)c2cc(C(=O)NCc3nc4ccccc4s3)ccc21` [Example 40, N-(benzo[d]thiazol-2-ylmethyl)-1-(3,5-difluorobenzyl)-3,3-dimethyl-2-oxoindoline-6-carboxamide] as the molecule, how does the EC50 read?
A: The EC50 was 1 to 10 µM.

Q: For `Cc1ncc(CNC(=O)c2ccc3c(c2)N(Cc2c(F)cccc2Cl)C(=O)C3(C)C)o1` [Example 31, 1-(2-chloro-6-fluorobenzyl)-3,3-dimethyl-N-((2-methyloxazol-5-yl)methyl)-2-oxoindoline-6-carboxamide], which EC50 is on record?
A: Its EC50 is > 10 µM.

Q: For `CC1(C)C(=O)N(Cc2cc(F)cc(F)c2)c2nc(C(=O)NCc3cc4ccncc4o3)ccc21` [Example 187, 1-(3,5-difluorobenzyl)-N-(furo[2,3-c]pyridin-2-ylmethyl)-3,3-dimethyl-2-oxo-2,3-dihydro-1H-pyrrolo[2,3-b]pyridine-6-carboxamide], which EC50 is on record?
A: Its EC50 is > 10 µM.

Q: `Cc1nnc(CNC(=O)c2ccc3c(c2)N(Cc2cc(F)cc(F)c2)C(=O)C3(C)C)o1` [Example 29, 1-(3,5-difluorobenzyl)-3,3-dimethyl-N-((5-methyl-1,3,4-oxadiazol-2-yl)methyl)-2-oxoindoline-6-carboxamide] was tested. Which EC50 did it give?
A: Its EC50 is > 10 µM.

Q: For `CC1(C)C(=O)N(Cc2cc(F)cc(F)c2)c2cc(C(=O)NCc3cccc(C(F)(F)F)c3)ccc21` [Example 45, 1-(3,5-difluorobenzyl)-3,3-dimethyl-2-oxo-N-(3-(trifluoromethyl)benzyl)indoline-6-carboxamide], which EC50 is on record?
A: Its EC50 is > 10 µM.

Q: For `CC1(C)C(=O)N(Cc2ccccn2)c2cc(C(=O)NCc3c(F)cc(F)cc3F)ccc21` [Example 99, 3,3-dimethyl-2-oxo-1-(pyridin-2-ylmethyl)-N-(2,4,6-trifluorobenzyl)indoline-6-carboxamide], which EC50 is on record?
A: The EC50 was 1 to 10 µM.

Q: How did the EC50 turn out when `CC1(CCO)C(=O)N(Cc2cc(F)cc(F)c2)c2cc(C(=O)NCc3ccc(F)cc3F)ccc21` (stereo not drawn) [Example 174, N-(2,4-difluorobenzyl)-1-(3,5-difluorobenzyl)-3-(2-hydroxyethyl)-3-methyl-2-oxoindoline-6-carboxamide] was run?
A: The EC50 was > 10 µM.

Q: How did the EC50 turn out when `CC1(C)C(=O)N(Cc2cc(F)cc(F)c2)c2nc(C(=O)NCc3c(F)cc(F)cc3F)ccc21` [Example 180, 1-(3,5-difluorobenzyl)-3,3-dimethyl-2-oxo-N-(2,4,6-trifluorobenzyl)-2,3-dihydro-1H-pyrrolo[2,3-b]pyridine-6-carboxamide] was run?
A: Its EC50 is 1 to 10 µM.

Q: For `CC1(C)C(=O)N(Cc2ccc(C(N)=O)cc2)c2cc(C(=O)NCc3c(F)cc(F)cc3F)ccc21` [Example 120, 1-(4-carbamoylbenzyl)-3,3-dimethyl-2-oxo-N-(2,4,6-trifluorobenzyl)indoline-6-carboxamide], which EC50 is on record?
A: The EC50 was > 10 µM.
